From US9079891B2, “Compounds that modulate intracellular calcium” (CALCIMEDICA, INC., priority 2010, dated 2015)
Where two headings read alike, the source gives them in different places.

Experiments:
[1] = target: T1, recombinant human STIM1 and Orai1 (Homo sapiens, UniProt Q96D31); test: Fluorescence-based assay of store-operated calcium entry in Orai1/STIM1 stable cells (FLIPR); format: cell-based; details: for IC50: HEK-293 cells stably expressing human Orai1/STIM1, Fluo-4, Peak-Basal signal, read-out: FLIPR_CRAC: 9 point CRC: O1S1_JR251: IC50: Peak_over_Basal
T1 construct: c-myc (C); expressed in transfected cells; host or cells: HEK-293 cells stably expressing human STIM1 and human Orai1
Description: A. Fluorescence-Based Assay of Store-Operated Calcium Entry in Orai1/Stim1 Stable Cells.
Cells stably expressing recombinant human STIM1 and Orai1 are generated by transfecting a human Orai1 expression plasmid (pcDNA3.1-Orai1-cmyc) into HEK-293 cells stably overexpressing human STIM1 (Roos et al. 2005 JCB 169(3): 435-445). Colonies of cells stably expressing both STIM1 and Orai1 proteins are selected and then subcloned by limiting dilution. Cells were cultured at 37° C./6% CO2 in complete medium with 10% FBS and appropriate selection markers.
The day prior to performing the assay Orai1/STIM1 stable cells are plated in 50 μL of complete medium at 90-95% confluence in a 384 well plate. Cells are grown at 37° C./6% CO2 overnight. On the day of the assay, 1.5 μM fluo-4-AM (Invitrogen) in complete medium is added to the cells, which are then incubated for 1 hour at RT. Cells are washed once in Ca^2+-free HBSS (Hank's buffered saline solution) and 35 μl of Ca^2+-free HBSS is added to each well. Test compounds are added to wells in a 10 μL Ca^2+-free HBSS solution, prepared at 4.5× the desired final concentration, and incubated for 30 minutes at RT. The initial baseline fluorescence signal is then measured with a FLIPR^384 (Molecular Devices) plate reader. Calcium entry is initiated by adding 5 μl of 10×CaCl2 (10 mM) in HBSS, and changes in cellular fluorescence are measured with the FLIPR^384 plate reader. In each well, the magnitude of the fluorescence signal as a result of calcium entry into the cell is determined by calculating the difference between the peak fluorescence signal measured after calcium addition and the initial baseline fluorescence signal (designated Peak-Basal). IC50 values are typically calculated as the concentration that inhibited 50% of the Peak-Basal signal.

RBL-2H3 cells = test: Fluorescence-based assay of store-operated calcium entry in RBL-2H3 cells (FLIPR, thapsigargin); format: cell-based, rat; details: Fluo-4, Upslope 0-7 sec, read-out: FLIPR_CRAC: 9 pt CRC - Fluo4_TG-D: RBL-2H3: IC50: Upslope 0-7 sec
Description: B. Fluorescence-Based Assay of Store-Operated Calcium Entry in RBL-2H3 Cells.
RBL-2H3 cells are obtained from ATCC and maintained in complete medium with 10% FBS at 37° C./6% CO2.
The day prior to performing the assay, RBL-2H3 cells are plated in 50 μl of complete medium in a 384 well plate. Cells are grown at 37° C./6% CO2 overnight and grow to 50-60% confluence by the next day. On the assay day, 1.5 μM Fluo-4-AM dye (Invitrogen) in complete medium is added and incubated for 1 hour at RT. Cells are washed twice in Ca^2+-free HBSS buffer and 35 μl Ca^2+-free HBSS buffer is added to each well. 10 μl of a test compound prepared in a Ca^2+-free HBSS solution at 4.5× of the desired concentration is added to a well and incubated for 5 minutes at RT. 10 μl of thapsigargin prepared in a Ca^2+-free HBSS solution at 5.5× of the desired concentration (5.5 uM) is added to each well and incubated for an additional 25 minutes. The initial baseline fluorescence signal is measured with a FLIPR^384 (Molecular Devices) plate reader. 5 μl of 12× calcium in HBSS (12 mM) is added and changes in cellular fluorescence are measured with the FLIPR^384 plate reader. In each well, the change in the fluorescent signal as a function of time due to calcium entry into the cell is determined by calculating the difference between the fluorescent signal measured 7 seconds after calcium addition and the initial baseline fluorescence signal at time zero (t=0). This parameter is designated Upslope. The IC50 value is calculated as the concentration at which 50% of the Upslope is inhibited.

T1 sequence (Q96D31 whole entry): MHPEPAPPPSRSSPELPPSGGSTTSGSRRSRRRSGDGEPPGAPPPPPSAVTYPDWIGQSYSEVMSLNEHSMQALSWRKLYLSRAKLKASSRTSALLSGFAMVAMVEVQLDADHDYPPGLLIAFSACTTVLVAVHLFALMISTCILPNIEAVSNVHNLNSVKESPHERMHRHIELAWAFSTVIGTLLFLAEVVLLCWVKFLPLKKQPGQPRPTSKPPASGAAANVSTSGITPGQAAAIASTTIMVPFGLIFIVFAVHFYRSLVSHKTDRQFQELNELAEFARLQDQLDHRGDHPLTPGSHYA

Compound: O=C(Nc1ccccc1Cl)c1ccc(-c2cc3scnc3cc2Cl)s1 [Example 8, N-(2-chlorophenyl)[5-(5-chlorobenzothiazol-6-yl)(2-thienyl)]carboxamide]
- IC50 [1]: 0.6 to 1.2 µM
- IC50 (RBL-2H3 cells; Rattus norvegicus): < 0.6 µM

Compound: Cc1cc2cnn(C)c2cc1-c1ccc(C(=O)Nc2ccccc2F)s1 [Example 12]
- IC50 [1]: 0.6 to 1.2 µM
- IC50 (RBL-2H3 cells; Rattus norvegicus): < 0.6 µM

Compound: Cc1cc2cn(C)nc2cc1-c1ccc(C(=O)Nc2ccccc2Cl)s1 [Example 14]
- IC50 [1]: 0.6 to 1.2 µM
- IC50 (RBL-2H3 cells; Rattus norvegicus): < 0.6 µM

Compound: Cc1cc2cn(C)nc2cc1-c1ccc(C(=O)Nc2c(F)cccc2F)s1 [Example 15]
- IC50 [1]: 0.6 to 1.2 µM

Compound: Cc1nc(-c2cc(-c3ccc(C(=O)Nc4c(F)cccc4F)s3)n(C)n2)no1 [Example 16, N-(2,6-difluorophenyl){5-[1-methyl-3-(5-methyl(1,2,4-oxadiazol-3-yl))pyrazol-5-yl](2-thienyl)}carboxamide]
- IC50 [1]: 0.6 to 1.2 µM

Compound: Cc1nc(-c2cc(-c3ccc(C(=O)Nc4ccccc4F)s3)n(C)n2)no1 [Example 17, N-(2-fluorophenyl){5-[1-methyl-3-(5-methyl(1,2,4-oxadiazol-3-yl))pyrazol-5-yl](2-thienyl)}carboxamide]
- IC50 [1]: 0.6 to 1.2 µM
- IC50 (RBL-2H3 cells; Rattus norvegicus): < 0.6 µM

Compound: Cc1nc(-c2cc(-c3cnc(NC(=O)c4ccccc4Cl)s3)n(C)n2)no1 [Example 18, (2-chlorophenyl)-N-{5-[1-methyl-3-(5-methyl(1,2,4,-oxadiazol-3-yl))pyrazol-5-yl](1,3-thiazol-2-yl)}carboxamide]
- IC50 [1]: > 1.2 µM

Compound: Cn1c(-c2cnc(NC(=O)c3ccccc3Cl)s2)cc2ccccc21 [Example 22, (2-chlorophenyl)-N-[5-(1-methylindol-2-yl)(1,3-thiazol-2-yl)]carboxamide]
- IC50 [1]: > 1.2 µM
- IC50 (RBL-2H3 cells; Rattus norvegicus): < 0.6 µM

Compound: CC(C)n1nc(C(F)(F)F)cc1-c1cnc(NC(=O)c2ccccc2Cl)s1 [Example 25, (2-chlorophenyl)-N-{5-[1-(methylethyl)-3-(trifluoromethyl)pyrazol-5-yl](1,3-thiazol-2-yl)}carboxamide]
- IC50 [1]: > 1.2 µM
- IC50 (RBL-2H3 cells; Rattus norvegicus): 0.6 to 1.2 µM

Compound: Cc1cccnc1C(=O)Nc1ncc(-c2cc(C(F)(F)F)nn2C)s1 [Example 26, (3-methyl(2-pyridyl))-N-{5-[1-methyl-3-(trifluoromethyl)pyrazol-5-yl](1,3-thiazol-2-yl)}carboxamide]
- FLIPR_CRAC: 9 point CRC: O1S1_JR251: efficacy ([1]; printed in the IC50 column in place of a class symbol): <50% efficacy
- IC50 (RBL-2H3 cells): < 0.6 µM

Compound: Cn1nc(C(F)(F)F)cc1-c1ncc(NC(=O)c2ccccc2Cl)s1 [Example 29, (2-chlorophenyl)-N-{2-[1-methyl-3-(trifluoromethyl)pyrazol-5-yl](1,3-thiazol-5-yl)}carboxamide]
- IC50 [1]: > 1.2 µM
- IC50 (RBL-2H3 cells; Rattus norvegicus): > 1.2 µM

Compound: Cn1nc(C(F)(F)F)cc1-c1sc(C(=O)Nc2c(F)cccc2F)cc1N [Example 30, {4-Amino-5-[1-methyl-3-(trifluoromethyl)pyrazol-5-yl](2-thienyl)}-N-(2,6-difluorophenyl)carboxamide]
- IC50 [1]: > 1.2 µM

Compound: Cn1nc(-c2ccccc2)cc1-c1ccc(C(=O)Nc2ncccc2F)s1 [Example 45]
- IC50 [1]: 0.6 to 1.2 µM
- IC50 (RBL-2H3 cells; Rattus norvegicus): 0.6 to 1.2 µM

Compound: Cn1nc(-c2nccs2)cc1-c1ccc(C(=O)Nc2c(F)cccc2F)s1 [Example 49, (2,6-difluorophenyl)[5-(1-methyl-3-(1,3-thiazol-2-yl)pyrazol-5-yl](2-thienyl)]carboxamide]
- IC50 [1]: < 0.6 µM
- IC50 (RBL-2H3 cells; Rattus norvegicus): < 0.6 µM

Compound: Cn1nc(-c2nccs2)cc1-c1ccc(C(=O)Nc2c(F)cncc2F)s1 [Example 50]
- IC50 [1]: 0.6 to 1.2 µM
- IC50 (RBL-2H3 cells; Rattus norvegicus): < 0.6 µM

Compound: Cn1nc(-c2nccs2)cc1-c1ccc(C(=O)Nc2ncccc2F)s1 [Example 52]
- IC50 [1]: 0.6 to 1.2 µM
- IC50 (RBL-2H3 cells; Rattus norvegicus): 0.6 to 1.2 µM

Compound: Cn1nc(-c2cccs2)cc1-c1ccc(C(=O)Nc2c(F)cccc2F)s1 [Example 63, N-(2,6-difluorophenyl)[5-(1-methyl-3-(2-thienyl)pyrazol-5-yl](2-thienyl)]carboxamide]
- IC50 [1]: > 1.2 µM

Compound: Cn1nc(-c2cccs2)cc1-c1ccc(C(=O)Nc2ccccc2Cl)s1 [Example 65]
- IC50 [1]: > 1.2 µM
